Measured values taken from US20100317849A1, “Process For Producing Pure And Stable Form Of 2-Methyl-4-(4-Methyl-1-Piperazinyl) -10H-Thieno[2,3-B] [1,5] Benzodiazepine” (priority 2006, published 2010).
“Also recorded” adds a separate entry of the source.

Columns and labels:
[1] = Stability of Olanzapine Form I at stressed conditions (40° C./75% RH), HPLC purity, total impurity and colour (UV absorbance at 430 nm); type: physicochemical
[2] = as above; type: physicochemical; settings: for Absorbance at 430 nm Log I/Io: colour; for Stability under stressed conditions: stressed conditions (40° C.)
Experimental: The colour of Olanzapine is determined by following method:
Olanzapine 50 mg was dissolved in 50 ml 0.1 N HCl in methanol, which was diluted to prepare 100 μgm/ml, 200 μgm/ml, 500 μgm/ml of Olanzapine solution. […] Calibration curve was plotted between absorbance and concentration.
% of Colour=Amount of colour from calibration curve×100/Weight of sample taken.

[3] = cited from earlier work

## Cc1cc2c(s1)Nc1ccccc1N=C2N1CCN(C)CC1 [Olanzapine Form I, 2-methyl-4-(4-methyl-1-piperazinyl)-10H-thieno[2,3-b][1,5]benzodiazepine]
[1]; 30 DAYS/40° C./75% RH
  Impurity Profile Chromatographic purity %: 99.94%
  Impurity Profile Total Imp. % age: 0.06 % age
[1]; 30 DAYS/40° C./75% RH, colour
  Absorbance at 430 nm Log I/Io: 0.402
[1]; 60 DAYS/40° C./75% RH
  Impurity Profile Chromatographic purity %: 99.96%
  Impurity Profile Total Imp. % age: 0.04 % age
[1]; 120 DAYS/40° C./75% RH
  Impurity Profile Chromatographic purity %: 99.95%
  Impurity Profile Total Imp. % age: 0.05 % age
[1]; 180 DAYS/40° C./75% RH
  Impurity Profile Chromatographic purity %: 99.93%
  Impurity Profile Total Imp. % age: 0.07 % age
[1]; Initial
  Impurity Profile Chromatographic purity %: 99.97%
  Impurity Profile Total Imp. % age: 0.03 % age
[2]; 60 DAYS/40° C./75% RH
  Absorbance at 430 nm Log I/Io: 0.407
[2]; 120 DAYS/40° C./75% RH
  Absorbance at 430 nm Log I/Io: 0.4034
[2]; 180 DAYS/40° C./75% RH
  Absorbance at 430 nm Log I/Io: 0.4026
[2]; Initial
  Absorbance at 430 nm Log I/Io: 0.4
[2]; high temperature (40° C.), high moisture or stress conditions
  Colour stability upon storage: colour stable; also recorded: stable colour
[2]; listed as Form I
  Stability under stressed conditions: highly stable
[2]; listed as olanzapine
  Stability under stressed conditions: high stability
[3]; Form I crystallized from acetonitrile per U.S. Pat. No. 5,229,382, on standing
  Stability / colour on standing: metastable and changes its color on standing
[3]; Form I prepared from alcoholic solvent, U.S. Pat. No. 6,906,062, room temperature
  Stability at room temperature: stable form at room temperature
